Some test systems named below: A549; ACHN; COLO 205; EKVX; HCT-15; IGROV-1; K562; LOX IMVI; OVCAR-4; SF-295; SK-MEL-28; SK-MEL-5; UACC-257; NCI-H226; SF-539; SK-MEL-2.
Holding throughout (assay): inhibition of tumour cell growth, NCI panel, 48 h

The structures appear in SMILES notation.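 Dose response: 5 concentrations. Exposure: 48 h. Format: 96-well plates. Endpoint: linear interpolation; highest concentration if not reached. GI50 marks 50% less growth.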 Active and inactive are the calls of the source. No stated cut-off is given here; in the data, active = GI50 up to about 1.1 µM and inactive = higher. Where only a bound is given, the exact number is not on record here.

Consider `COc1cc(C2C3=C(CCC3=O)Oc3cc4c(cc32)OCO4)cc(OC)c1OC` (configuration not stated), for which the GI50 in the assay with A549 is 0.448 µM (active); with ACHN, 0.337 µM (active); in the assay on COLO 205, 0.336 µM (active); with EKVX it was 0.422 µM (active); in the assay with HCT-15 it was 0.256 µM; in the assay on IGROV-1 it was 0.67 µM (active). The GI50 in the assay with K562 was 0.138 µM (active); with LOX IMVI it was 0.491 µM (active); in the assay with OVCAR-4, 10 µM (inactive); in the assay on SF-295, 0.109 µM (active); in the assay with SK-MEL-28 it was 0.429 µM (active); with SK-MEL-5, 0.237 µM (active). Besides, the GI50 in the assay on UACC-257 was 0.406 µM (active).

For the compound `Cc1ccc(C(=O)CC2=Nc3nnc(CCCCCCCc4nnc5n4C(=O)C(CC(=O)c4ccc(C)cc4)=N5)n3C2=O)cc1`, the GI50 with A549 was > 100 µM (inactive); in the assay on ACHN, > 100 µM (inactive); in the assay with COLO 205 it was > 100 µM (inactive); in the assay with EKVX, > 100 µM (inactive); in the assay on HCT-15, above 100 µM; in the assay with IGROV-1 it was > 100 µM (inactive). For the same compound, the GI50 with K562, in the assay on LOX IMVI, in the assay with NCI-H226, in the assay on OVCAR-4, with SF-295 and in the assay on SF-539 was > 100 µM (inactive) in each case. The GI50 in the assay with SK-MEL-28, with SK-MEL-5 and in the assay with UACC-257 was > 100 µM (inactive) in each case.

For `CC1(c2ccc(Cl)cc2)C2C(=O)NC(=O)C1C(=O)NC2=O` (configuration not stated), the GI50 in the assay with A549 is > 100 µM (inactive); with ACHN it was > 100 µM (inactive); in the assay with COLO 205 it was > 100 µM (inactive); in the assay on EKVX, > 100 µM (inactive); with HCT-15, above 100 µM; in the assay with IGROV-1, > 100 µM (inactive). For the same compound, the GI50 with K562, in the assay with LOX IMVI, with OVCAR-4, in the assay with SF-295, with SF-539 and in the assay on SK-MEL-28 was > 100 µM (inactive) each time. In addition, the GI50 with SK-MEL-2, with SK-MEL-5 and with UACC-257 was > 100 µM (inactive) each time.

Turning to `O=C(c1ccccc1)[C@H]1Nc2ccc(Cl)cc2[C@H]2OCCC[C@@H]12`, the GI50 with ACHN was 31.3 µM (inactive); with COLO 205, 21.5 µM (inactive); in the assay on EKVX, 23.4 µM (inactive); in the assay on HCT-15 it was 23.1 µM; in the assay with IGROV-1 it was 39 µM (inactive); with K562, 22.6 µM (inactive). Further, the GI50 was 16.7 µM (inactive) with LOX IMVI; 21.3 µM (inactive) with NCI-H226; 20.7 µM (inactive) in the assay on OVCAR-4; 17 µM (inactive) in the assay on SF-295; 18.2 µM (inactive) with SK-MEL-28; 25.4 µM (inactive) with SK-MEL-2.

As to `COc1ccc(/C(Cl)=C(\CN(C)C)c2ccc(OC)c(OC)c2)cc1OC.[B]`, the GI50 in the assay on A549 is > 100 µM (inactive); in the assay with ACHN it was > 100 µM (inactive); in the assay on EKVX, > 100 µM (inactive); in the assay on HCT-15 it was above 100 µM; with IGROV-1 it was > 100 µM (inactive); with K562 it was > 100 µM (inactive). For the same compound, the GI50 in the assay with LOX IMVI was > 100 µM (inactive); in the assay on NCI-H226, > 100 µM (inactive); in the assay with OVCAR-4 it was 1.19 µM (inactive); in the assay with SF-295, 12.7 µM (inactive); in the assay on SF-539, 4.72 µM (inactive); in the assay on SK-MEL-5, > 100 µM (inactive). In addition, the GI50 with UACC-257 is > 100 µM (inactive).

On to `O=Cc1cn(C(=O)c2ccccc2)c2ccccc12`, for which the GI50 in the assay with A549 is > 100 µM (inactive); with ACHN, > 100 µM (inactive); in the assay with EKVX, > 100 µM (inactive); in the assay on HCT-15 it was above 100 µM; in the assay with IGROV-1 it was > 100 µM (inactive); in the assay on K562, 70 µM (inactive). In addition, the GI50 in the assay with NCI-H226 is 56 µM (inactive); in the assay with OVCAR-4, > 100 µM (inactive); in the assay with SF-295, 38.1 µM (inactive); with SF-539, 80 µM (inactive); in the assay on SK-MEL-28, > 100 µM (inactive); in the assay on SK-MEL-2, > 100 µM (inactive). The GI50 was 45 µM (inactive) in the assay on SK-MEL-5 and 83 µM (inactive) in the assay on UACC-257.

For the origin of these results see ChEMBL document CHEMBL1201862, “PubChem BioAssay data set” (2004).
